ChEMBL document CHEMBL1201862, “PubChem BioAssay data set” (2004)
Active and inactive are the calls of the source.

Experiments:
[1] = system: H4; assay: Luminescence Cell-Based Dose Response HTS to Identify Activators of 5'UTR Stem-Loop Driven Prion Protein mRNA Translation in H4 Neuroglioblastoma Cells. [Related pubchem assays: 1829 (Project Summary), 1814 (Primary HTS)]; type: functional; conditions: Homo sapiens
[2] = molecular target: FAD-linked sulfhydryl oxidase ALR (Homo sapiens, UniProt P55789); assay: inhibitors of human ALR sulfhydryl oxidase, dose response, biochemical, H2O2 detection, luminescence, cherry-pick (AID 493248)
[3] = Luminescence Cell-Based Dose Response HTS to Identify Activators of Luciferase Translation or Activity in H4 […] Cells. [Related pubchem assays: 1829 (Project Summary), 1814 (Primary HTS)]; type: functional
[4] = molecular target: Dual specificity tyrosine-phosphorylation-regulated kinase 1A (Rattus norvegicus, UniProt Q63470); type: biochemical, Homo sapiens
[5] = molecular target: Dual specificity protein kinase CLK1 (Homo sapiens, UniProt P49759); assay: CLK1 kinase inhibitors, off-target check, dose response, selectivity assay for Dyrk1A inhibitor project, biochemical, cherry-picked samples (AID 588811)
[6] = Luminescence Cell-Based Dose Confirmation HTS to Identify Activators of 5'UTR Stem-Loop Driven Alpha-Synuclein mRNA Translation in H4 Neuroglioblastoma Cells. [Related pubchem assays: 1829 (Project Summary), 1814 (Primary HTS)]; type: functional
[7] = molecular target: T1, Sentrin-specific protease 7 (Homo sapiens, UniProt Q9BQF6); type: functional;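 note: Luminescence-based dose-response confirmation of ultra-high-throughput screening hits, measuring inhibition of SENP7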
T1 sequence (Q9BQF6 whole entry): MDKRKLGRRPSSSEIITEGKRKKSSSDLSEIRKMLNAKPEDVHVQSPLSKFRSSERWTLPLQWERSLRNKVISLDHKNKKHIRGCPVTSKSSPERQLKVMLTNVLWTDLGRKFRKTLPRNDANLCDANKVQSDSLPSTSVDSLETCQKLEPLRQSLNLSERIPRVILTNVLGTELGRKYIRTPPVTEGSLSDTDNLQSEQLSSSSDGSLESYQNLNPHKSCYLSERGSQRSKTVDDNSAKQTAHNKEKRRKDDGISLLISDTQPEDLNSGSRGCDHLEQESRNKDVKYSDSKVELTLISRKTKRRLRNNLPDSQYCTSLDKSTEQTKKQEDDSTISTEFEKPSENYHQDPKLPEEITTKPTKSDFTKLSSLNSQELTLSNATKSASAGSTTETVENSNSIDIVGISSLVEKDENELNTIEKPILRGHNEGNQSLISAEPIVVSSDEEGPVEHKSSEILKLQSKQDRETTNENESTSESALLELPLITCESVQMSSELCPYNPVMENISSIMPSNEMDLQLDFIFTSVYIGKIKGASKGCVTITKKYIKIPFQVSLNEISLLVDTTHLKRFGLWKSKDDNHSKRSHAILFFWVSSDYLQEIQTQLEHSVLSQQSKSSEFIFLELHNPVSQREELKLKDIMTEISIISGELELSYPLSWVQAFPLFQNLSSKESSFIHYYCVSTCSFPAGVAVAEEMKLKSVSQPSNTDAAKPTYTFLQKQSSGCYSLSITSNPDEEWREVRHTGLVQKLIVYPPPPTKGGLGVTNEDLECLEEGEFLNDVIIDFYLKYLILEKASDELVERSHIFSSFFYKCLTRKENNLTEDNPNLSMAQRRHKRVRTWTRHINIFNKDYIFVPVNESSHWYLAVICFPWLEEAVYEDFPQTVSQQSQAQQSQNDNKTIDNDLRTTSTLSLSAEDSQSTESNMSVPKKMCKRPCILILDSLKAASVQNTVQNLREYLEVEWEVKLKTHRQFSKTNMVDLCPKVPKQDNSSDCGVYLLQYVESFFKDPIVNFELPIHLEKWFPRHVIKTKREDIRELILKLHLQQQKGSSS

[8] = system: A-375; assay: MITF: Counter assay: A375 proliferation Measured in Cell-Based System Using Plate Reader - 2084-03_Inhibitor_Dose_DryPowder_Activity. [Related pubchem assays (depositor defined):AID488944]; type: functional; conditions: Homo sapiens
[9] = molecular target: T2, Caspase-3 (Homo sapiens, UniProt P42574); type: functional;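 note: Dose-response selectivity test against caspase-3 for candidate inhibitors of sentrin-specific proteases (SENPs)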
T2 sequence (P42574 whole entry): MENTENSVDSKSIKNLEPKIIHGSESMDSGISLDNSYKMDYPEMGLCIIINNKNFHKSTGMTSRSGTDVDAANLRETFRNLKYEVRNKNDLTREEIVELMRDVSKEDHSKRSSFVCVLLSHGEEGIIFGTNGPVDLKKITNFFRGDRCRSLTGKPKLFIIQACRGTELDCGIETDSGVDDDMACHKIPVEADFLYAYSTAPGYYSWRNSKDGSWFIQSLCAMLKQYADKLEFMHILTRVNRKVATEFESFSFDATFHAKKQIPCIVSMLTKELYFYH

[10] = molecular target: T3, Sentrin-specific protease 6 (Homo sapiens, UniProt Q9GZR1); type: functional;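 note: Luminescence-based dose-response confirmatory assay of SENP6 inhibition, following up an ultra-high-throughput screen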
T3 sequence (Q9GZR1 whole entry): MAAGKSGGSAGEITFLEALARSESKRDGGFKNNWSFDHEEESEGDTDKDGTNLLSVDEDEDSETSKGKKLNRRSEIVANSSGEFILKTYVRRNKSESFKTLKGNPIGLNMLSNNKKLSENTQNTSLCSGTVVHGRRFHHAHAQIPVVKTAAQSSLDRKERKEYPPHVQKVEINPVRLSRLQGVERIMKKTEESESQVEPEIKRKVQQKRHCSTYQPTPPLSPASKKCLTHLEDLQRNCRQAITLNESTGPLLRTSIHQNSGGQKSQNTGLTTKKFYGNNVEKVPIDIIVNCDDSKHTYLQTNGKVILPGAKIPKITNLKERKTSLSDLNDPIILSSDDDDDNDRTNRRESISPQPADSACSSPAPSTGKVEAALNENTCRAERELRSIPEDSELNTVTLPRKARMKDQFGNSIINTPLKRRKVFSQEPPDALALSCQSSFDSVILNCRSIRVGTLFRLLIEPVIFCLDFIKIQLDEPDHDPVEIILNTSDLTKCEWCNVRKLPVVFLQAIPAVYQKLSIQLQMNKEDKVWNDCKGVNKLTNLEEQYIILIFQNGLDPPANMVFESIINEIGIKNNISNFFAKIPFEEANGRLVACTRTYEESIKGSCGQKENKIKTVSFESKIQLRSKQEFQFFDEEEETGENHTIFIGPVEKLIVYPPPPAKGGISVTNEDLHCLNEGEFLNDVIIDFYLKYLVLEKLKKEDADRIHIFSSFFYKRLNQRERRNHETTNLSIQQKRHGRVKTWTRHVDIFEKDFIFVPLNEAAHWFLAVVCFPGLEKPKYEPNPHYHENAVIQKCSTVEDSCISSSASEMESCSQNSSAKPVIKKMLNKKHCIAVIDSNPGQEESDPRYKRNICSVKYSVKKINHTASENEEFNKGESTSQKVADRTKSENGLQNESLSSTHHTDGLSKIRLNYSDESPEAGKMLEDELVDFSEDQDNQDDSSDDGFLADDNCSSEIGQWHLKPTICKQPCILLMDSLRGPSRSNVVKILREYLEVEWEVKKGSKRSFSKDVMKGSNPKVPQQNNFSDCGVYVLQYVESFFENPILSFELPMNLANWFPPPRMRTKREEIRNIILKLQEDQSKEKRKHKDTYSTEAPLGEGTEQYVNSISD

[11] = system: A-375; assay: A375 melanoma cell viability reduction, dose response, counter-screen for MITF modulator project, cherry-pick samples, set 2 (AID 540335); type: functional, cell-based; conditions: Homo sapiens
[12] = molecular target: T4, Sentrin-specific protease 8 (Homo sapiens, UniProt Q96LD8); type: functional;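 note: luminescence read-out of SENP8 inhibition, dose-response confirmation following an ultra-high-throughput screen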
T4 sequence (Q96LD8 whole entry): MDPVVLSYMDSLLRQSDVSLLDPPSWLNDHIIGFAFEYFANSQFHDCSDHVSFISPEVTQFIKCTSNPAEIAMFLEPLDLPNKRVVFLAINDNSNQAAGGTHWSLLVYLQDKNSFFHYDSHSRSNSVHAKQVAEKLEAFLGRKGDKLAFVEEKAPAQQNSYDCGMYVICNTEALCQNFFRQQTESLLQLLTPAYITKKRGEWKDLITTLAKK

[13] = system: NIH3T3; assay: cytotoxicity in NIH-3T3 fibroblasts, dose response, cytotoxicity control for antifungal drug resistance project, cell-based, Alamar Blue, fluconazole, dry powder (AID 488809); type: functional; conditions: Mus musculus
[14] = molecular target: T5, Caspase-6 (Homo sapiens, UniProt P55212); assay: human caspase-6 inhibitors, dose response, biochemical, VEID-R110 fluorescence, cherry-pick (AID 720632)
T5 sequence (P55212 whole entry): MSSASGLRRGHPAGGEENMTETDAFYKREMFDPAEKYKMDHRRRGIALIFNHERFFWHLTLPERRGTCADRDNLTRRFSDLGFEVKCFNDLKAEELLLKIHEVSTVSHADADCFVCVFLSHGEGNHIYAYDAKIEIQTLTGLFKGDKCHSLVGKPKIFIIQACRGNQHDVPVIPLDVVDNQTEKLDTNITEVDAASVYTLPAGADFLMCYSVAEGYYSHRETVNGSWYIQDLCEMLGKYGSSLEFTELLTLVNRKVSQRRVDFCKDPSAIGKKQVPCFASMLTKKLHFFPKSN

[15] = molecular target: T6, Beta-adrenergic receptor kinase 1 (Homo sapiens, UniProt P25098); assay: aptamer displacement from bead-bound GRK2 – biochemical, cherry pick 1, bead flow cytometry, dose response (AID 504500)
[16] = molecular target: T7, Carboxy-terminal domain RNA polymerase II polypeptide A small phosphatase 1 (Homo sapiens, UniProt Q9GZU7); assay: inhibitors of CTDSP1, concentration-response testing, biochemical assay, absorbance-based, actives from ultra-high-throughput screening (AID 540297); type: functional
T7 sequence (Q9GZU7 whole entry): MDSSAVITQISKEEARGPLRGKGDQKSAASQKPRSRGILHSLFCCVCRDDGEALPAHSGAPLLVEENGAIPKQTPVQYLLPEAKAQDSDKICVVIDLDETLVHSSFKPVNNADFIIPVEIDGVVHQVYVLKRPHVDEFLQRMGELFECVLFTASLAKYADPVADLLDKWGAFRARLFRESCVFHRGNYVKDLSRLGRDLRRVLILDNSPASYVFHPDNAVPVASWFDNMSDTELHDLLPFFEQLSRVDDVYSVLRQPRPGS

[17] = molecular target: T6, Beta-adrenergic receptor kinase 1; assay: GRK2 inhibitors displacing RNA aptamer, dose response, biochemical, flow cytometry beads, FAM-aptamer, powder set 1 (AID 588720)
[18] = molecular target: T8, Histone-lysine N-methyltransferase NSD2 (Homo sapiens, UniProt O96028); type: biochemical
T8 sequence (O96028 whole entry): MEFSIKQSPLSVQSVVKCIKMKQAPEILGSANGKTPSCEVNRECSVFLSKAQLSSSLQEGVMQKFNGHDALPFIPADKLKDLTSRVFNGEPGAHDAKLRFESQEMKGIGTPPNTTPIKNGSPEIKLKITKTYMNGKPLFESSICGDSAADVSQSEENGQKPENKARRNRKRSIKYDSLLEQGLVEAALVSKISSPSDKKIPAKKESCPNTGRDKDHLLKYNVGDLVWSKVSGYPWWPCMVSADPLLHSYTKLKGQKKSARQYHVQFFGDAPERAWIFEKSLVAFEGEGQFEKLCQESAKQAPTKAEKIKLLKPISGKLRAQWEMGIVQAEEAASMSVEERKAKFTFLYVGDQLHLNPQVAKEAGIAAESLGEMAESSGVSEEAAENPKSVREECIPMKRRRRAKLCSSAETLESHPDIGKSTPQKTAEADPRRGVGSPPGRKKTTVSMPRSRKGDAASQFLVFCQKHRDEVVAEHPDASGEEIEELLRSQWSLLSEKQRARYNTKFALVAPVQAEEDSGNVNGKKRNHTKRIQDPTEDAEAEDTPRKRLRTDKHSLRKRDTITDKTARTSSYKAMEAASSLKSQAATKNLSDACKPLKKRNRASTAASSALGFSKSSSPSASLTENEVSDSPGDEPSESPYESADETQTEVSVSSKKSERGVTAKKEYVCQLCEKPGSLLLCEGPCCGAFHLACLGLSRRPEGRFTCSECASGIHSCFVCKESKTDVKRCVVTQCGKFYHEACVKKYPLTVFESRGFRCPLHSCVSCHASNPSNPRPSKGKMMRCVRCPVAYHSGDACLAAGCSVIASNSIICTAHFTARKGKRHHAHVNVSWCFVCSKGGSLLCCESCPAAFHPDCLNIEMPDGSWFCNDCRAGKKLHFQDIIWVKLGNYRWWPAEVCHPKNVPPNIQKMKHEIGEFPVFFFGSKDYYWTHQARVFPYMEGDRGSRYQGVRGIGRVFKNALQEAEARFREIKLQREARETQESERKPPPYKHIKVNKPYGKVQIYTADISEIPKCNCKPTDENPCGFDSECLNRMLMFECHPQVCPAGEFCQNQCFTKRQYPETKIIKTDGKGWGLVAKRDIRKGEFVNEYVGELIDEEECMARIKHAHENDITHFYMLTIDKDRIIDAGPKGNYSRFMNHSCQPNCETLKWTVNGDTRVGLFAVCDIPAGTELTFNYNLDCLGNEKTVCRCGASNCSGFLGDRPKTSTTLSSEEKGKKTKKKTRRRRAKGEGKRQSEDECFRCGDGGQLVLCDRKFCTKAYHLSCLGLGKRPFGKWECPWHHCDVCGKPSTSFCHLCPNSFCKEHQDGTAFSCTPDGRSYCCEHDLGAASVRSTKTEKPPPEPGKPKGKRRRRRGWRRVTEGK

[19] = molecular target: Heat shock protein HSP 90-alpha (Homo sapiens, UniProt P07900); type: functional, organism-based
[20] = molecular target: Large T antigen (Simian virus 40, UniProt P03070); type: functional, Betapolyomavirus macacae;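 note: Confirmatory-stage PubChem screen for compounds that inhibit SV40 T antigen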
[21] = system: Escherichia coli; assay: microbe, parasite or virus in culture
[22] = system: Escherichia coli; assay: microbe, parasite or virus in culture; remark: listed apart in the source

T6 sequence (P25098 whole entry, the tested form may be a part): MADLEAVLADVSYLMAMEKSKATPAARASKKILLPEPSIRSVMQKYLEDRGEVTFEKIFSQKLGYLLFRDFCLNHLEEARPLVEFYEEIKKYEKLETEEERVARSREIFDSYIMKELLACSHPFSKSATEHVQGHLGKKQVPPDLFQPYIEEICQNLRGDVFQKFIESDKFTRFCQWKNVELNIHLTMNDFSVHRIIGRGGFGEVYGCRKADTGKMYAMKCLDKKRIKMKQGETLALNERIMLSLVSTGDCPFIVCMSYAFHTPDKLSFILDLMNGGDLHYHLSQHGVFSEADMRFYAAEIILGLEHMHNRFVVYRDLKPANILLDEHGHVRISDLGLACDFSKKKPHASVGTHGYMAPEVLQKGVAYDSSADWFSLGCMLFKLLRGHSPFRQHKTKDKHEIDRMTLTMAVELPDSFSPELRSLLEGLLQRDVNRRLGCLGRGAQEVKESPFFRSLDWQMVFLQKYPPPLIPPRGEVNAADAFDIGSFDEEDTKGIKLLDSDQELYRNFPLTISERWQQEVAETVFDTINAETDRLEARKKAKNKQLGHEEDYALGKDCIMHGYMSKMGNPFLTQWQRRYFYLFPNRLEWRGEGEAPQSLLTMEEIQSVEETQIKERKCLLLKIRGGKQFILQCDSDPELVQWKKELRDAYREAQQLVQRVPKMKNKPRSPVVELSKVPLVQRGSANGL
Sequence of FAD-linked sulfhydryl oxidase ALR (P55789 whole entry): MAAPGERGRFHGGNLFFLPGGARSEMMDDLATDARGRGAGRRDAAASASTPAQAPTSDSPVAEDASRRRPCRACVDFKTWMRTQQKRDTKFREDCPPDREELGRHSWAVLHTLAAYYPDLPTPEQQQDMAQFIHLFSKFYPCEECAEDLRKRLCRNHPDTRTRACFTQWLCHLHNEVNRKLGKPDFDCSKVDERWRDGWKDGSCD
Sequence of Large T antigen (P03070 whole entry): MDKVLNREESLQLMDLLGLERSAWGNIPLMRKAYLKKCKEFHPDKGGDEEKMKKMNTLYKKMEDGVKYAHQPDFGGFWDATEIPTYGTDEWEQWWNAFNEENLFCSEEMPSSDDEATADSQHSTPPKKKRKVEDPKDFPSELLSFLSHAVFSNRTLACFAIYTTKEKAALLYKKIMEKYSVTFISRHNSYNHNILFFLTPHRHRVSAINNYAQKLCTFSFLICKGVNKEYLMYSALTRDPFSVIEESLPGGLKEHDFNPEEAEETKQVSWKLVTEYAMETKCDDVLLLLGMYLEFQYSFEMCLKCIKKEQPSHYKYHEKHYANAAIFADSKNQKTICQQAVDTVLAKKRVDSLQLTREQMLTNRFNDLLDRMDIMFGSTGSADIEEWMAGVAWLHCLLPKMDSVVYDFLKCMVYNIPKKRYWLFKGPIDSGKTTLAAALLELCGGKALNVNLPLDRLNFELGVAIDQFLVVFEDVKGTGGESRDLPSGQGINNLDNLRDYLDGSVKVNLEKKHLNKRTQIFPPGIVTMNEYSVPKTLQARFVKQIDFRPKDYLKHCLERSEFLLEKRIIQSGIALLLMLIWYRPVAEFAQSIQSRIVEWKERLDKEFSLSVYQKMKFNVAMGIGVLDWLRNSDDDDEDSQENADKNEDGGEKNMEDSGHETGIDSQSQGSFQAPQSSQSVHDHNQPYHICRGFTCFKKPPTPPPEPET
Sequence of Dual specificity protein kinase CLK1 (P49759 whole entry): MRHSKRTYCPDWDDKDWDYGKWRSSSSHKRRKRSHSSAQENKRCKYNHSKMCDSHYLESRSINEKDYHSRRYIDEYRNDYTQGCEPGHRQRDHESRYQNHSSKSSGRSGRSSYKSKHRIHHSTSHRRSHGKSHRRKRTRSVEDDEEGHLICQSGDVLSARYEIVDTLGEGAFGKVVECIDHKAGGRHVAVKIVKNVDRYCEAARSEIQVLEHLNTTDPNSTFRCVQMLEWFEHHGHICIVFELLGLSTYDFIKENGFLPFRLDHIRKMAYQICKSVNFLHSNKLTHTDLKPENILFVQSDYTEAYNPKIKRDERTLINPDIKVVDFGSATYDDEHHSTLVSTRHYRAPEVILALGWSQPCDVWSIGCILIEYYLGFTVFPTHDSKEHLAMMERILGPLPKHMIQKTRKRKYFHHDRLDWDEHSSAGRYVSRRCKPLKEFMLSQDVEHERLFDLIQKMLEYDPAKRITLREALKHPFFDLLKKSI

CC(=O)Nc1ccc(SCc2ncc(-c3ccccc3)o2)cc1
active: EC50 [1] 11.2 µM | AC50 [2] 440 nM | EC50 [3] 237 nM | AC50 [4] 4.26 µM | AC50 [5] 429 nM | EC50 [6] 34.3 µM

CCOc1ccc2nc(NC(=O)Cc3cccs3)sc2c1
active: IC50 [7] 7.38 µM | AC50 [8] > 35 µM | IC50 [9] 22.9 µM | IC50 [10] 33.2 µM | AC50 [11] > 35 µM | IC50 [12] 16.2 µM

O=C(Cn1nc(-c2ccccc2)c2ccccc21)NCc1ccc(Cl)cc1
active: AC50 [13] 131 µM

O=C(O)Cc1ccc(-n2cccc2)cc1
inactive: EC50 [15] 36.2 µM
active: AC50 [14] 2.7 µM | IC50 [16] 4.01 µM | EC50 [17] 3.21 µM | AC50 [18] 11.9 µM

[O-][n+]1ccccc1S [PYRITHIONE]
active: AC50 [2] 432 nM | AC50 [19] 1.01 µM | IC50 [20] 30.3 µM | AC50 [21] 9.47 µM | AC50 [22] 9.06 µM
